Key:
Histone deacetylase = assay: Inhibition of human HDAC in HeLa cells by flour de lys assay; format: cell-based
DU-145 [1] = assay: Viability of human DU145 cells after 72 hrs by trypan blue staining; format: functional, cell-based; details: DU-145, 72 h
DU-145 [2] = assay: Viability of human DU145 cells after 72 hrs by MTS assay; format: functional, cell-based; details: DU-145, 72 h

| IC50 (Histone deacetylase) | EC50 (DU-145 [1]) | EC50 (DU-145 [2]) | SMILES |
| --- | --- | --- | --- |
| 2.09 nM |  |  | COc1ccc(-c2cn(CCCCCC(=O)NO)nn2)cc1 |
| 76 nM |  |  | COc1ccccc1-c1cn(CCCCCC(=O)NO)nn1 |
| 315.9 nM |  |  | COc1cccc(OC)c1-c1cn(CCCCCC(=O)NO)nn1 |
| 1.9 nM |  |  | O=C(CCCCCn1cc(-c2cccc(-c3ccccc3)c2)nn1)NO |
| 5.4 nM |  |  | O=C(CCCCCCn1cc(-c2cccc(-c3ccccc3)c2)nn1)NO |
| 162.6 nM |  |  | O=C(CCCCCn1cc(-c2ccccc2-c2ccccc2)nn1)NO |
| 2.3 nM | 4.72 µM | 3070 nM | O=C(CCCCCn1cc(-c2ccc(-c3ccncc3)cc2)nn1)NO |
| 16.6 nM |  |  | O=C(CCCCCCn1cc(-c2ccc(-c3ccncc3)cc2)nn1)NO |
| 15.3 nM | 7.76 µM | 3990 nM | COc1ccc2cc(-c3cn(CCCCCCC(=O)NO)nn3)ccc2c1 |
| 14.2 nM |  |  | O=C(CCCCCn1cc(-c2ccccc2)nn1)NO |
| 9.6 nM |  |  | O=C(CCCCCCn1cc(-c2ccccc2)nn1)NO |
| 4.3 nM |  |  | CN(C)c1ccc(-c2cn(CCCCCC(=O)NO)nn2)cc1 |
| 106.1 nM |  |  | CN(C)c1ccc(-c2cn(CCCCCCC(=O)NO)nn2)cc1 |
| 287.2 nM |  |  | O=C(CCCCCn1cc(-c2cccnc2)nn1)NO |
| 151.5 nM |  |  | O=C(CCCCCn1cc(-c2ccc3cccnc3c2)nn1)NO |
| 112.5 nM |  |  | O=C(CCCCCn1cc(-c2ccncc2)nn1)NO |
| 23.9 nM |  |  | O=C(CCCCCCn1cc(-c2ccccn2)nn1)NO |
| 17.4 nM |  |  | Cc1ccccc1-c1cn(CCCCCC(=O)NO)nn1 |
| 1.8 nM | 3.95 µM | 2600 nM | COc1ccc2cc(-c3cn(CCCCCC(=O)NO)nn3)ccc2c1 |
| 52.4 nM |  |  | O=C(CCCCCn1cc(-c2ccc(-c3ccccc3)cc2)nn1)NO |
| 31.7 nM |  |  | O=C(CCCCCn1cc(-c2cccs2)nn1)NO |
| 43.4 nM |  |  | Cc1ccc(-c2cn(CCCCCC(=O)NO)nn2)cc1 |
| 31.9 nM |  |  | Cc1cccc(-c2cn(CCCCCC(=O)NO)nn2)c1 |
| 13.9 nM |  |  | COc1cccc(-c2cn(CCCCCC(=O)NO)nn2)c1 |
| 2.1 nM | 2.25 µM | 2460 nM | O=C(CCCCCn1cc(-c2ccc3ccccc3n2)nn1)NO |
|  | 2.12 µM |  | O=C(CCCCCCC(=O)Nc1ccccc1)NO [VORINOSTAT] |
